Experimental data reported in patent US7592421B1, “HLA class II peptide mimics” (Health Research, Inc., priority 2003, dated 2009).
Entries after “also recorded” stand apart in the source; their conditions may differ.

Assays:
MOLT-4 lymphoid cells = experiment: Flow cytometry of immune sera with control MOLT-4 lymphoid cells; type: cell-based, human; details: sera of immunized BALB/c mice, day 35; MOLT-4 does not express HLA class II; FIG. 4B
Excerpt: (§1) HLA-DR transgenic mice express HLA-DR molecules. The promoter that is used to drive DR expression in the transgenic mice is H2 Ea promoter (pDOI-5 expression vector). This vector directs the expression of cDNA to cells which normally display class II molecules. HLA-DR transgenic mice were utilized as a model to test whether HLA class II peptide mimics can break tolerance to self-antigen. HLA-DR transgenic mice were immunized with peptide JH1 and JHT1 conjugated to keyhole limpet hemocyanin (KLH) and mixed with complete Freund's adjuvant for priming and with incomplete Freund's adjuvant for boosting. […] These experiments utilized LG2 cells as described in Example 2 and MOLT-4 cells. […] It was used as a control. Sera used for testing reactivity with HLA class II antigens was harvested on day 35 from BABL/c mice for FIGS. 2 and 4 and on day 70 from HLA-DR transgenic mice in FIG. 3. For FIGS. 2, 3 and 4, preimmune serum was harvested one week before the first immunization and was used as a control. […] One intradermal injection with HLA class II bearing LG2 cells enhanced the immune response to HLA class II antigens.

HLA class II antigens [1] = experiment: Immunization of HLA-DR transgenic mice, breaking of self-tolerance; type: in vivo; details: peptide conjugated to KLH with Freund's adjuvant, sera day 70, FIG. 3
Excerpt: as §1

[2] = test system: HLA class II antigens of LG2 lymphoid cells; experiment: Flow cytometry of immune sera with LG2 lymphoid cells; type: cell-based, human; details: sera of immunized BALB/c mice, day 35; FIG. 4A
Excerpt: as §1

[3] = Side effects in immunized mice; type: in vivo; details: peptide-KLH, Freund's adjuvant
Excerpt: as §1

[4] = test system: mAb TP25.99, which recognizes HLA class I antigens; experiment: Inhibition of binding of control mAb TP25.99 (specificity control); details: FIG. 1E
Protocol: This Example illustrates the ability of the peptide mimics to bind to anti-HLA class II mAbs. The synthetic peptides were tested by ELISA for their ability to bind to anti-HLA class II mAb H2-27.F5.2G4, HT214.F2.H6.4F4, LGII612.14 and TP117.6. JH1 and JHT1 were also tested for their ability to inhibit the binding of anti-HLA class II mAb H2-27.F5.2G4 (FIG. 1B), HT214.F2.H6.4F4 (FIG. 1A), LGII612.14 (FIG. 1C) and TP117.6 (FIG. 1D) to HLA class II bearing cells LGL2 cells. H2-27.F5.2G4, LGII-612.14 and HT214.F2.H6.4F4 are monoclonal antibodies (mAb) that recognize HLA class II antigens. TP25.99 is a monoclonal antibody (mAb) which recognizes HLA class I antigens and is used in FIG. 1E as a control. LG2 is a human lymphoid cell line which expresses HLA class II antigens on its cell surface. P763.74 is a High Molecular Weight-Melanoma Associated Antigen (HMW-MAA) peptide mimic isolated using the anti-HMW-MAA mAb 763.74 and is used in FIGS. 1A-1C as a control peptide. The peptides were considered to be mimics of HLA class II antigens if they could inhibit the binding of any of the four anti-HLA class II mAb (H2-27, F5.2G4, HT214.F2.H6.4F4, LGII612.14 and TP117.6) to HLA class II bearing cells.

[5] = test system: anti-HLA class II mAb HT214.F2.H6.4F4; experiment: ELISA binding of synthetic peptide to mAb HT214.F2.H6.4F4; details: ELISA and inhibition assay
Protocol: (§2) Peptide mimics of HLA class II antigen can be isolated by panning phage display peptide libraries with anti-HLA class II antigen mAbs. Anti-HLA class II antigen mAbs can be used to isolate phage that display antibody reactive peptides. After phage panning, the binding ability of isolated phage colonies to anti-HLA class II antigen mAbs is tested with immunoscreening and further confirmed by enzyme-linked immunosorbent assay (ELISA). Anti-HLA class II antigen antibody reactive phage clone and the same phage without displaying peptides, can be utilized as a positive and a negative controls respectively in the immunoscreening and ELISA. In the positive phage clones, the DNA inserts that encode the antibody reactive peptides can be sequenced. Peptides can be synthesized based on the sequences of the DNA inserts. The synthesized peptides are tested in ELISA to determine their binding reactivity with corresponding anti-HLA class II antigen mAbs. The ability of synthetic peptides to inhibit the binding of anti-HLA class II antigen mAbs to HLA class II antigen can be tested in an inhibition assay with HLA class II antigen-positive cell lines. The synthetic peptides that inhibit or block the binding of anti-HLA class II antigen mAbs to HLA class II antigen can be tested as active immunotherapy candidates. […]

[6] = test system: immunizing peptides; HLA class II; experiment: Antibody titers in sera of immunized mice; type: in vivo; details: peptide-KLH, Freund's adjuvant; FIGS. 2-4
Excerpt: as §1

HLA class II antigens [7] = experiment: Immunization of BALB/c mice, serum reactivity with HLA class II antigens; type: in vivo; details: peptide conjugated to KLH with Freund's adjuvant, sera day 35, FIG. 2
Excerpt: as §1

[8] = test system: mAb TP117.6 binding to HLA class II antigens on LG2 cells; experiment: Inhibition of binding of mAb TP117.6 to HLA class II bearing LG2 cells; design: species or system human; details: FIG. 1D
Protocol: as §2

[9] = test system: mAb HT214.F2.H6.4F4 binding to HLA class II antigens on LG2 cells; experiment: Inhibition of binding of mAb HT214.F2.H6.4F4 to HLA class II bearing LG2 cells; design: species or system human; details: FIG. 1A; negative control peptide 673.74
Protocol: as §2

[10] = test system: anti-HLA class II mAb H2-27.F5.2G4; experiment: ELISA binding of synthetic peptide to mAb H2-27.F5.2G4; details: ELISA and inhibition assay
Protocol: as §2

[11] = test system: mAb H2-27.F5.2G4 binding to HLA class II antigen on LG2 cells; experiment: Inhibition of binding of mAb H2-27.F5.2G4 to HLA class II bearing LG2 cells; design: species or system human; details: FIG. 1B; negative control peptide 673.74
Protocol: as §2

[12] = test system: anti-HLA class II mAb LGII-612.14; experiment: ELISA binding of synthetic peptide to mAb LGII-612.14; details: ELISA and inhibition assay
Protocol: as §2

[13] = test system: mAb LGII-612.14 binding to HLA class II antigens on LG2 cells; experiment: Inhibition of binding of mAb LGII-612.14 to HLA class II bearing LG2 cells; design: species or system human; details: FIG. 1C; negative control peptide 673.74
Protocol: as §2

| Sequence | reactivity of immune sera with control MOLT-4 lymphoid cells (flow cytometry) (MOLT-4 lymphoid cells) | breaking self-tolerance, humoral immune response against HLA class II antigens (HLA class II antigens [1]) | reactivity of immune sera with HLA class II antigens of LG2 lymphoid cells (flow cytometry) [2] | side effects in immunized mice [3] | inhibition of binding of mAb TP25.99 (anti-HLA class I, control) [4] | reaction with the combining site of mAb HT214.F2.H6.4F4 [5] | anti-HLA class II antibodies in sera of immunized mice [6] | antibodies to the immunizing peptides in sera of immunized mice [6] | humoral immune response against HLA class II antigens (HLA class II antigens [7]) | inhibition of binding of mAb TP117.6 to HLA class II antigens on LG2 cells [8] | inhibition of binding of mAb HT214.F2.H6.4F4 to HLA class II antigens on LG2 cells [9] | reaction with the combining site of mAb H2-27.F5.2G4 [10] | inhibition of binding of mAb H2-27.F5.2G4 to HLA class II antigen on LG2 cells [11] | reaction with the combining site of mAb LGII-612.14 [12] | inhibition of binding of mAb LGII-612.14 to HLA class II antigens on LG2 cells [13] |
| --- | --- | --- | --- | --- | --- | --- | --- | --- | --- | --- | --- | --- | --- | --- | --- |
| KCPLDPKGLNCV (unknown synthesized peptide JHT1) [HLA class II peptide mimic isolated by panning with mAb HT214.F2.H6.4F4] | lack of reactivity | can break self-tolerance and elicit a humoral immune response against HLA class II antigens; also recorded: can also break self-tolerance | reactivity | No obvious side effects | do not inhibit binding | reacted with the combining sites | detected in the sera of immunized mice at lower titers | high-titer antibodies to the immunizing peptides were detected | elicits a humoral immune response against HLA class II antigens; also recorded: also induced a humoral response against HLA class II antigens | can inhibit binding | inhibits binding of mAb HT214.F2.H6.4F4 to HLA class II antigens to LG2 cells in a dose-dependent manner | – | – | – | – |
| SCLRAGGWVCCK (unknown synthesized peptide JH1) [HLA class II peptide mimic isolated by panning phage display libraries with mAb H2-27.F5.2G4 and LGII-612.14] | lack of reactivity | can break self-tolerance and elicit a humoral immune response against HLA class II antigens | reactivity | No obvious side effects | do not inhibit binding | – | detected in the sera of immunized mice at lower titers | high-titer antibodies to the immunizing peptides were detected | elicits a humoral immune response against HLA class II antigens; also recorded: induced a humoral response against HLA class II antigens | can inhibit binding | – | reacted with the combining sites | inhibits binding of mAb H2-27.F5.2G4 to HLA class II antigen on LG2 cells in a dose-dependant manner | reacted with the combining sites | inhibits binding of mAb LGII-612.14 to HLA class II antigens on LG2 cells in a dose-dependent manner |
